Reference: US4723039A, “Phenylacetaldehydes substituted by basic groups, their preparation and drugs containing these compounds” (BASF Aktiengesellschaft, priority 1985, dated 1988)
Structures can show the parent of a compound that is named as a salt.

What was measured:
[1] = test system: lesions of the gastric mucous membrane; test: Cytoprotective action (ethanol-induced gastric lesions); type: in vivo, Sprague-Dawley rat (female); details: rat, oral; for ED50: dose reducing lesions by 50%, read-out: Cytoprotective effect ED 50%
Procedure: The cytoprotective action was determined on groups of 8 female Sprague-Dawley rats weighing 160-190 g, the rats having received no food for 48 hours (water ad libitum) and having been pretreated with different doses of the test substances, administered orally. 1 hour later, 10 ml/kg of 100% ethanol were administered orally to the animals. After a further hour, the animals were sacrificed by inhalation of CO2, the stomach was removed and the intensity of the lesions was assessed on the basis of the following scheme:
0=unchanged mucous membrane
1=a few areas of reddening which are narrow, elongated or small
2=reddening over broad, elongated or large interrupted areas
3=pronounced reddening which colors virtually the entire mucous membrane of the glandular stomach.

[2] = test system: ulcerous lesions on the mucous membrane; test: Antiulcerous action (reserpine/indomethacin-induced gastric ulceration); type: in vivo, Sprague-Dawley rat (female); details: rat, oral; for ED50: dose reducing ulcerous area by 50%, read-out: Antiulcerous effect ED 50%
Procedure: To investigate the antiulcerous action, groups of 10 female Sprague-Dawley rats weighing 160-180 g received 1 mg/kg of reserpine, administered intraperitoneally, and thereafter remained without food for 18 hours (water ad libitum). […] Thereafter, they were kept for 6 hours at 8° C. and then sacrificed. The stomach was removed and the area of the ulcerous lesions on the mucous membrane was determined.

[3] = test system: secretion of gastric acid; test: Inhibition of secretion of gastric acid; type: in vivo, Sprague-Dawley rat (female); details: rat, oral; for ED (0.75 pH units): 1 h, dose increasing gastric mucosal surface pH by 0.75 pH units, read-out: Acid secretion-inhibiting effect ED 0.75; for Gastric acid secretion-inhibiting dose relative to verapamil: fraction of the dose required of verapamil
Procedure: Inhibition of the secretion of gastric acid is evident from an increase in the pH of the surface of the gastric mucous membrane. For this measurement, groups of from 5 to 10 female Sprague-Dawley rats weighing 160-190 g, which had remained without food for 48 hours (water ad libitum), were pretreated with different doses of the test substances, administered orally. […] The dose which produces an increase in the pH by 0.75 pH units is determined as the ED 0.75, from the linear regression of log dose and the increase in the pH.

[4] = test system: Histamine-induced bronchospasm; test: Broncholytic action, histamine-induced bronchospasm; type: in vivo; details: guinea pig, intravenous; for ED75: Cavia porcellus, 75% reduction in bronchospasms, read-out: ED 75% histamine-induced bronchospasm; for Broncholytic activity compared with verapamil, histamine-induced (in words): text does not separate the inducers
Description: (§1) The animals were artificially ventilated using a Starling pump.

[5] = test system: Acetylcholine-induced bronchospasm; test: Broncholytic action, acetylcholine-induced bronchospasm; type: in vivo; details: guinea pig, intravenous; for ED75: Cavia porcellus, 75% reduction in bronchospasms, read-out: ED 75% acetylcholine-induced bronchospasm; for Broncholytic activity compared with verapamil, acetylcholine-induced (in words): text does not separate the inducers
Description: as §1

[6] = test system: isolated spiral strips of aorta; test: Calcium-antagonistic action in isolated spiral strips of aorta; set-up: species or system Sprague-Dawley rat; details: in vitro; for EC50: Rattus norvegicus, 50% inhibition of the effect of 0.5 mM Ca++, K-depolarized strips, read-out: Ca-antagonistic action EC 50%; for Ca-antagonistic activity compared with verapamil (in words): rat aorta strips
Procedure: The Ca-antagonistic action was tested on spiral strips of aorta of male and female Sprague-Dawley rats weighing from 200 to 300 g.
The animals were sacrificed with ether, and the thorax and thoracic aorta were removed. A maximum of 6 spiral strips about 2 mm wide and 2 cm long were used per animal.
The strips of aorta were suspended in a modified tyrode solution at 37° C. and subjected to an initial tension with a load of 1.5 g and, after a relaxation time of about 1 hour, Ca was removed by keeping them for 5 minutes in Ca-free tyrode solution with the addition of 0.2 mM of Na EDTA.
The Ca-free strips of vessel were depolarized with K-rich tyrode solution for 10 minutes. Contraction was induced by a CaCl2 concentration of 0.5 mM. After 15 minutes, Ca was again removed from the strips of vessel by means of a Ca-free tyrode solution containing 0.2 mM of Na EDTA.
Depolarization was then effected again for 10 minutes with K-rich tyrode solution, after which 0.05 ml of the test substance was added. After the test substance had been allowed to act for 15 minutes, CaCl2 was again added in a concentration of 0.5 mM in order to check whether the test substance has a Ca-antagonistic action. Inhibition of the effect of 0.5 mM Ca^++ by the antagonistic substance is stated as a percentage.

systolic blood pressure = test: Antihypertensive action in spontaneously hypertensive rats; type: in vivo, spontaneously hypertensive male Okamoto rat; details: for Reduction in blood pressure, p.o., R.A. / ED20: SH rat, p.o.; for Reduction in blood pressure, p.o., R.A.: verapamil = 1.00; for ED20: po, 2 hours after administration, 20% reduction in systolic pressure, read-out: Reduction in blood pressure ED 20% p.o.
Procedure: To determine the antihypertensive action, the substances were administered orally to spontaneously hypertensive male Okamoto rats (4-8 animals/dose, weight 270-360 g). The systolic blood pressure was measured noninvasively on the rat's tail with the aid of piezoelectric transducers, before and 2 hours after administration. The dose which reduces the systolic pressure by 20%, relative to the values for untreated control animals, was determined as the ED 20%.

blood pressure = test: Hypotensive action in anesthetized rats; type: in vivo, Sprague-Dawley rat; details: anesthetized rat; for Reduction in blood pressure, i.v., R.A.: verapamil = 1.0; for ED20: iv, 20% decrease in blood pressure, read-out: Reduction in blood pressure ED 20% i.v.
Procedure: The blood pressure was measured in the carotid artery. The substances were administered intravenously into the jugular vein. The dose which produces a 20% decrease in blood pressure was calculated as the ED 20%, from the linear regression of log dose (mg/kg) and relative decrease in blood pressure (Δ%).

EC50 [6] [µM] | Compound | ED (0.75 pH units) [3] [mg/kg] | ED75 [4] [mg/kg] | Broncholytic activity compared with verapamil, histamine-induced (in words) [4] | ED75 [5] [mg/kg] | Broncholytic activity compared with verapamil, acetylcholine-induced (in words) [5] | Ca-antagonistic activity compared with verapamil (in words) [6] | also measured
– | CC(C)[C@@](C=O)(CCCN(C)CCc1ccccc1)c1ccccc1 [Example 2, (S)-2-[3-[(Phenylethyl)-methylamino]-propyl]-2-isopropylphenylacetaldehyde hydrochloride] | 2 | – | – | – | – | – | ED50 [1]: 9.4 mg/kg; ED50 [2]: 12.2 mg/kg; Gastric acid secretion-inhibiting dose relative to verapamil [3]: one-fifth
– | CC(C)[C@](C=O)(CCCN(C)CCc1ccccc1)c1ccccc1 [Example 3, (R)-2-[3-[(Phenylethyl)-methylamino]-propyl]-2-isopropylphenylacetaldehyde hydrochloride] | 2.1 | – | – | – | – | – | ED50 [1]: 8.3 mg/kg; ED50 [2]: 3.8 mg/kg; Gastric acid secretion-inhibiting dose relative to verapamil [3]: one-fifth
– | COc1cccc(CCN(C)CCCC(C=O)(c2ccc(OC)c(OC)c2)C(C)C)c1 (stereo not drawn) [Example 6, 2-[3-[(3-Methoxyphenylethyl)-methylamino]-propyl]-2-isopropyl-3,4-dimethoxyphenylacetaldehyde] | – | 0.59 | substantially higher activity | 0.39 | substantially higher activity | – | –
0.022 | COc1cccc(CCN(C)CCCC(C=O)(c2cccc(OC)c2)C(C)C)c1 (stereo not drawn) [Example 7, 2-[3-[(3-Methoxyphenylethyl)-methylamino]-propyl]-2-isopropyl-3-methoxyphenylacetaldehyde] | – | 0.61 | substantially higher activity | 0.67 | substantially higher activity | – | –
– | COc1ccc(CCN(C)CCCC(C=O)(c2ccc(OC)c(OC)c2)C(C)C)cc1OC (stereo not drawn) [Example 8, 2-[3-[(3,4-Dimethoxyphenylethyl)-methylamino]-propyl]-2-isopropyl-3,4-dimethoxyphenylacetaldehyde] | – | 0.38 | substantially higher activity | 0.23 | substantially higher activity | – | –
0.0012 | COc1cccc(CCN(C)CCCC(C=O)(c2cc(OC)c(OC)c(OC)c2)C(C)C)c1 (stereo not drawn) [Example 9, 2-[3-[(3-Methoxyphenylethyl)-methylamino]-propyl]-2-isopropyl-3,4,5-trimethoxyphenylacetaldehyde hydrogen oxalate] | – | – | – | – | – | substantially higher activity | –
0.019 | COc1ccc(CCN(C)CCCC(C=O)(c2cc(OC)c(OC)c(OC)c2)C(C)C)cc1OC (stereo not drawn) [Example 10, 2-[3-[3,4-Dimethoxyphenylethyl)-methylamino]-propyl]-2-isopropyl-3,4,5-trimethoxyphenylacetaldehyde hydrogen oxalate] | – | – | – | – | – | substantially higher activity | –
0.012 | COc1cc(CCN(C)CCCC(C=O)(c2cc(OC)cc(OC)c2)C(C)C)cc(OC)c1 (stereo not drawn) [Example 11, 2-[3-[(3,5-Dimethoxyphenylethyl)-methylamino]-propyl]-2-isopropyl-3,5-dimethoxyphenylacetaldehyde hydrogen oxalate] | – | – | – | – | – | substantially higher activity | –
0.032 | CCOc1cc(CCN(C)CCCC(C=O)(c2cc(OCC)cc(OCC)c2)C(C)C)cc(OCC)c1 (stereo not drawn) [Example 12, 2-[3-[(3,5-Diethoxyphenylethyl)-methylamino]-propyl]1-2-isopropyl-3,5-diethoxyphenylacetaldehyde hydrogen oxalate] | – | 0.65 | substantially higher activity | 0.27 | substantially higher activity | – | Reduction in blood pressure, p.o., R.A. (systolic blood pressure): 6.25; Blood pressure reducing dose, times smaller compared with verapamil (systolic blood pressure; conscious spontaneously hypertensive rats, oral): 6.3 times; ED20 (systolic blood pressure): 4 mg/kg; Reduction in blood pressure, i.v., R.A. (blood pressure): 1.13; Reduction of blood pressure compared with verapamil (in words) (blood pressure; i.v.): reduces the blood pressure to a somewhat greater extent than verapamil; ED20 (blood pressure; i.v.): 0.3 mg/kg

Compound | EC50 [6] [µM] | ED (0.75 pH units) [3] [mg/kg] | ED75 [4] [mg/kg] | Broncholytic activity compared with verapamil, histamine-induced (in words) [4] | ED75 [5] [mg/kg] | Broncholytic activity compared with verapamil, acetylcholine-induced (in words) [5] | Ca-antagonistic activity compared with verapamil (in words) [6] | also measured
COc1ccc(CCN(C)CCCC(C#N)(c2ccc(OC)c(OC)c2)C(C)C)cc1OC (stereo not drawn) [Verapamil, verapamil, reference compound] | 0.035 | 10.5 | 1.3 | – | 0.56 | – | – | Cytoprotective effect ED 50% (no effect) [1]: (2); Antiulcerous effect ED 50% (no effect) [2]: (2); Reduction in blood pressure, p.o., R.A. (systolic blood pressure): 1.00; ED20 (systolic blood pressure): 25 mg/kg; Reduction in blood pressure, i.v., R.A. (blood pressure): 1.0; ED20 (blood pressure; i.v.): 0.34 mg/kg
